In patent publication US20180015144A1, “AGONISTS OF THE NOGO-A S1PR PATHWAY FOR THE TREATMENT OF GLIOBLASTOMA” (UNIVERSITAT ZURICH, priority 2015, published 2018):
Values belong to the molecule of their own block, whether it stands above or below them.

Key:
S1PR2 = S1PR2 (Homo sapiens, UniProt O95136); details: cited from earlier work
other S1P receptors = details: cited from earlier work
GBM MVEC filopodia = assay: Peak traction forces of filopodia on nanopillars, soluble Nogo-A proteins; assay type: cell-based, human
Procedure: (§1) For time-lapse- and force generation experiments, Vybrant/Dil (Invitrogen, 1:200)-labeled GBM MVEC (10^4 cells ml^−1) were added onto the nanopillar structures. The imaging process was started 1 h after seeding GBM MVEC on nanopillars. To calculate the traction force exerted by GBM MVEC on the nanopillar surface, the deflection of the nanopillar tip was imaged with confocal microscopy using a Leica confocal microscope SP5 with a63x, oil immersion, NA1.43 objective.
(§2) During image acquisition, GBM MVEC were kept at 37° C. and 10% CO2. Following laser wavelengths were used to acquire images of nanopillar arrays and Di-labeled cells: 488 nm (nanopillar structures) and 546 nm (Dil).
(§3) To quantitatively address the acute effects of soluble Nogo-A proteins on GBM MVEC retraction, Dil-labeled endothelial cells on nanopillars coated with 25 μg*ml^−1 human Fibronectin were treated 30 min after cell seeding with soluble Nogo-A Delta 20 and Nogo-A Delta 21 at 1 μM. Single GBM MVEC were then imaged for a total time of 1.5 h, with a scanning ratio of 30 s per frame. The nanopillar displacements were recorded as sequence images when the GBM MVEC applied forces on the nanopillar surface. For each condition, at least three individual GBM MVEC were analyzed. To address the role of Nogo-A receptors, endothelial cells were cultured for 30 min before incubating the cells for another 30 min with the pharmacological blocker of S1PR2 (JTE-013, 10 μM) (Tocris Bioscience), with the pharmacological blocker of S1PR1 and S1PR3 (VPC 23019, 10 μM) (Tocris Bioscience), or with the pharmacological blocker of S1PR1, 3, 4, and 5 (FTY720, 10 μM) (Tocris Bioscience). Then soluble Nogo-A Delta 20 (at 1 μM) or Nogo-A Delta 21 (at 1 μM) was added and lamellipodia and filopodia were imaged for 1h. The displacements (x) of the nanopillar tips induced by whole endothelial cells (for experiments with coated Nogo-A proteins) or by single endothelial filopodia (for experiments with soluble Nogo-A proteins) were measured using the program Diatrack (Powerful Particle Tracking, Semasopht). Finally, corresponding traction forces were calculated using the formula F=k*x, where k represents the spring constant of the nanopillars, 78.76 nN/μm.

GBM MVEC [1] = assay: Mean traction forces of adhered cells on nanopillars coated with Nogo-A proteins; assay type: cell-based, human
Procedure: as §1, §2
To quantitatively address the effects of coated Nogo-A proteins on adhesion between endothelial cells (GBM MVEC) and nanopillars, nanopillars were coated with Nogo-A Delta 20, Nogo-A Delta 21, or Fibronectin (blank condition).
To calculate the total force applied by endothelial cells (GBM MVEC) on the substrates, the average displacement of 800-5000 nanopillars per single cell was used. Single GBM MVEC were imaged for a total time of 20 min, with a scanning ratio of 30 s per frame. For each condition, at least three individual GBM MVEC were analyzed.
To address the role of Nogo-A receptors, endothelial cells were pre-incubated for 30 min before seeding with the pharmacological blocker of S1PR2 (JTE-013, 10 μM) (Tocris Bioscience), with the pharmacological blocker of S1PR1 and S1PR3 (VPC 23019, 10 μM) (Tocris Bioscience), or with the pharmacological blocker of S1PR1, 3, 4, and 5 (FTY720, 10 μM) (Tocris Bioscience).
as §3

GBM MVEC [2] = assay: Time-lapse imaging of lamellipodia and filopodia retraction on nanopillars, soluble Nogo-A proteins; assay type: cell-based, human
Procedure: as §1, §2
To quantitatively address the acute effects of soluble Nogo-A proteins on GBM MVEC retraction, Dil-labeled endothelial cells on nanopillars coated with 25 μg*ml^−1 human Fibronectin were treated 30 min after cell seeding with soluble Nogo-A Delta 20 and Nogo-A Delta 21 at 1 μM. Single GBM MVEC were then imaged for a total time of 1.5 h, with a scanning ratio of 30 s per frame. The nanopillar displacements were recorded as sequence images when the GBM MVEC applied forces on the nanopillar surface. For each condition, at least three individual GBM MVEC were analyzed. […] Finally, corresponding traction forces were calculated using the formula F=k*x, where k represents the spring constant of the nanopillars, 78.76 nN/μm.

GBM MVECs = assay: Transwell migration assay (VEGF-A + fibronectin induced); assay type: cell-based, human; details: for migration potential despite Nogo-A Delta 20 exposure, blocker alone: pre-incubation with blocker 10 μM; for VEGF+FN-induced migration: protein coated on the underside of the insert, different concentrations
Procedure: For the migration assays, the undersides of 24-well plate inserts (FluoroBlock, BD Falcon) were coated with 0.5 ml PBS containing 10 μg*ml^−1 fibronectin (recombinant human fibronectin, Biopur AG) and different concentrations of Nogo-A Delta 21, Nogo-A Delta 20 and Nogo-66 (R&D Systems) and incubated for 1 h at 37° C. Endothelial cells (GBM MVECs) were starved in migration medium (DMEM+0.25% BSA) 4 h before detachment with accutase (PAA Laboratories). Cells were resuspended in migration medium (1 Mio ml^−1) and labeled with calcein AM (Molecular Probes, 4 μg ml^−1), followed by washing with HBSS and resuspending in migration medium (125,000 cells ml^−1). The coated inserts were washed and the bottom chamber was prepared by adding migration medium with or without human VEGF-A (PeproTech Inc., 10 ng ml^−1). The inserts were then put in an empty 24-well plate (BD Falcon) and calcein AM-labeled endothelial cells (50,000 cells per insert) were added.
The loaded inserts were transferred to the prepared cluster plate and incubated at 37° C., 5% CO2 for 4 h. A cell titration plate was prepared by adding different cell numbers (50,000/25,000/12,500/6,250/3,125/1,563/782 cells per well) in triplicates in 1.2 ml migration medium and incubated in parallel. The fluorescence was measured after 4 h by a cytofluorometer (Tean Infinite Pro 200) and the number of migrated cells was calculated based on the titration curve.
To ask how co-signaling of Nogo-A Delta 20/Nogo-66 coated to the underside of transwell inserts and of its receptors affect cell migration, calcein-AM labeled GBM MVECs were incubated for 1 h with the pharmacological blockers of-the Nogo-A Delta 20 receptor S1PR2 (JTE-013, 1 μM, 10 μM), with the pharmacological blocker of S1PR1 and S1PR3 (VPC 23019, 10 μM) (Tocris Bioscience), and with the competitive inhibitor of the Nogo-66 receptor NgR1 (NEP1-40, 4.6 μg/ml) during calcein-AM labeling. After washing, the cell medium was again supplied with these pharmacological blockers, prior to cell addition in the upper chamber of the transwell insert.

[3] = target: sphingosin-1 phosphate (S1P) receptor 2 (S1PR2) (human) (UniProt O95136); assay: cell-based or functional assay
VEGFR2 [4] = assay: VEGFR2 phosphorylation at Tyr1175 and total VEGFR2 in HUVECs, western blot; assay type: cell-based; details: 15 min, protein 1 μM
Procedure: (§4) For the different treatment conditions HUVECs were seeded on 8 well dishes (LabTek chamber slides, immunofluorescence) or 6 well dishes (western blot) and left for 2 to 3 days until the culture was confluent. After a 4 h starvation of the cells in EBM-2 medium (Lonza, Switzerland), the cells were treated with Nogo-A Delta 20 (1 μM), Nogo-A Delta 20 (1 μM) and VEGF-A ([…]), Nogo-A Delta 21 (1 μM), Nogo-A Delta 21 (1 μM) and VEGF ([…]), or VEGF-A alone ([…]) in EBM-2 medium, respectively. The cells were either fixed in 4% formaldehyde for 15 min at room temperature or lysed in RIPA buffer. After fixation, HUVECs were stained with anti-phosphoVEGFR2 antibody (pTyr1175, #2478, Cell Signaling), F-actin (phalloidin Alexa Fluor 633, Molecular Probes) and DAPI. The same antibodies were used to detect VEGFR2 and phosphoVEGFR2 in western blot.

VEGFR2 [5] = assay: VEGFR2 phosphorylation at Tyr1175 in HUVECs, immunofluorescent antibody staining; assay type: cell-based; details: protein 1 μM
Procedure: as §4

[6] = tested on: endothelial tip cells within the glioblastoma; assay: Injection by osmotic minipumps in a mouse model of glioblastoma, endothelial tip cell count; assay type: in vivo; details: 20 days post-injection, versus scrambled Nogo-A Delta 20
Description: Coronal brain sections (40 μm) of glioblastoma-bearing mice (20 days post-injection, 20D-PI) were perfused with FITC Lectin (green) to visualize perfused blood vessels and stained for Endomucin to visualize blood vessels including endothelial tip cells (red) and the general nuclear marker DAPI (blue). The boxed areas are enlarged in d-f and in g-i. (a-f). Endomucin^+ endothelial tip cells (red, arrows) and FITC Lectin^+ established blood vessel (green) (d-f) are shown within the glioblastoma. Endomucin seems to be specific for blood vessels within the glioblastoma (red) (as compared to Endomucin^− blood vessels in the surrounding normal brain; green). (d,f,g,i) Note the nicely visualized Endomucin^+ endothelial tip cells including filopodial protrusions (red, arrows) (g) within the glioblastoma. (j) Injection of Nogo-A Delta 20 decreases the mean number of endothelial tip cells within the glioblastoma, showing its inhibitory effect on mouse glioblastoma blood vessels.
GL261 glioma cell implantation into adult (two months old) C57BL/6 animals was performed as previously described (Aulwurm et al., Int J Cancer 2006;118, 1728-1735; Biollaz et al., Eur J Immunol 2009;39, 1323-1333j). Briefly, a total of 2×10^4 GL261 cells were inoculated through a borehole placed 1 mm lateral and 2 mm dorsal to the bregma at 3 mm depth using a Hamilton syringe. […]

[7] = pre-incubation with blocker 10 μM, Nogo-A Delta 20 1 μM
[8] = pre-incubation with blocker 10 μM, Nogo-A Delta 20-coated nanopillars

Sequence of S1PR2 (O95136 whole entry): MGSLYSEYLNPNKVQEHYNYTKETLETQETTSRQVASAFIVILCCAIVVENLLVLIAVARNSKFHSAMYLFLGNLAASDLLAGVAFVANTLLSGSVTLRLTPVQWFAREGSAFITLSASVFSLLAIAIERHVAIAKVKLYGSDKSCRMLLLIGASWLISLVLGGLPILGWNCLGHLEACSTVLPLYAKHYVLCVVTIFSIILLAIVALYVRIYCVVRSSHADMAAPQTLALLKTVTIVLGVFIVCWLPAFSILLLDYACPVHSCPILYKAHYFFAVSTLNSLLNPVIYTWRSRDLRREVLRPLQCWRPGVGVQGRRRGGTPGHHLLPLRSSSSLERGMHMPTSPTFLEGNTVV
Sequence of sphingosin-1 phosphate (S1P) receptor 2 (S1PR2) (human) (O95136 whole entry): as above

Molecule: Cc1cc(C(=O)Cn2cc(C#N)ccc2=O)c(C)n1Cc1ccccc1 [CYM-5520]
selectivity for S1PR2 (S1PR2): highly selective
activation of other S1P receptors (other S1P receptors): do not activate

Molecule: CCCCCCCCc1ccc(CCC(N)(CO)CO)cc1 [FTY720]
effect of blocker on average peak traction forces of Nogo-A Delta 20 treated filopodia (GBM MVEC filopodia; [7]): did also decrease
effect of blocker on mean traction forces induced by Nogo-A Delta 20 coating (GBM MVEC [1]; [8]): did not decrease

Molecule: Cc1nn(C)c2nc(NNC(=O)Nc3cc(Cl)nc(Cl)c3)cc(C(C)C)c12 [JTE-013]
average peak traction forces of Nogo-A Delta 20 treated filopodia after blocker (GBM MVEC filopodia; [7]): ~4.5 nN
mean traction forces induced by Nogo-A Delta 20 coating after blocker (GBM MVEC [1]; [8]): ~4.1 nN
effect of blocker on soluble Nogo-A Delta 20-induced retraction of lamellipodia and filopodia (GBM MVEC [2]; [7]): counterbalanced
migration potential despite Nogo-A Delta 20 exposure, blocker alone (GBM MVECs): significantly increases

Molecule: CCCCCCCCc1cccc(NC(=O)[C@H](N)COP(=O)(O)O)c1 [VPC 23019]
effect of blocker on average peak traction forces of Nogo-A Delta 20 treated filopodia (GBM MVEC filopodia; [7]): did also decrease
effect of blocker on mean traction forces induced by Nogo-A Delta 20 coating (GBM MVEC [1]; [8]): did not decrease
inhibitor effect of Nogo-A Delta 20 on migration, combined blockers (GBM MVECs; combined pre-incubation of VPC 23019 with JTE-013): strong reduction of the inhibitor effect
migration potential despite Nogo-A Delta 20 exposure, blocker alone (GBM MVECs): no effect on its own

Molecule: Cc1ccc(Sc2ccc(C3SCCS3)cc2[N+](=O)[O-])cc1 [XAX-162]
selectivity for S1PR2 (S1PR2): highly selective
activation of other S1P receptors (other S1P receptors): do not activate

Molecule: NEP1-40: competitive antagonist of Nogo-66, inhibitor of the Nogo-66 receptor NgR1 (RIYKGVIQAIQKSDEGHPFRAYLESEVAISEELVQKYSNS; UniProt Q9NQC3 1055-1094, looked up, fragment)
migration potential upon exposure to Nogo-66 coating (GBM MVECs; pre-incubation with NEP1-40): significantly increases

mean traction forces of GBM MVECs on Nogo-A Delta 20-coated nanopillars [3]: 12 nN
peak traction forces of GBM MVEC filopodia on nanopillars, soluble Nogo-A Delta 20 at 1 µM [3]: 10 nN
Molecule: Nogo-A Delta 20 (ligand)

B1: Nogo-66: inhibitory domain of Nogo, 66 aa; human aa 1055-1120 (SEQ ID NO 004), rat aa 1026-1091 (SEQ ID NO 003) (protein)
chain: RIYKGVIQAIQKSDEGHPFRAYLESEVAISEELVQKYSNSALGHVNCTIKELRRLFLVDDLVDSLK
VEGF+FN-induced migration (GBM MVECs): dose-dependently inhibited

B2: Nogo-A Delta 20: Nogo-A specific inhibitory domain, 182 aa; human aa 567-748 (SEQ ID NO 002), rat aa 544-725 (SEQ ID NO 001) (protein, UniProt Q9NQC3 567-748, looked up, fragment)
chain: TGTKIAYETKMDLVQTSEVMQESLYPAAQLCPSFEESEATPSPVLPDIVMEAPLNSAVPSAGASVIQPSSSPLEASSVNYESIKHEPENPPPYEEAMSVSLKKVSGIKEEIKEPENINAALQETEAPYISIACDLIKETKLSAEPAPDFSDYSEMAKVEQPVPDHSELVEDSSPDSEPVDLF
amount of phosphoVEGFR2 protein (VEGFR2 [4]; with VEGF-A): reduced
total amount of VEGFR2 protein (VEGFR2 [4]; with VEGF-A): reduced
VEGFR2 phosphorylation, protein alone (VEGFR2 [4]; without VEGF-A): did not induce
peak traction forces of filopodia on the underlying nanopillars (GBM MVEC filopodia; soluble protein 1 μM): ~10 nN
mean traction forces and pillar displacements induced by adhered cells (change) (GBM MVEC [1]; protein coated on nanopillars): reduced
mean traction forces on the underlying nanopillars (GBM MVEC [1]; protein coated on nanopillars): ~12 nN
retraction of GBM MVEC lamellipodia and filopodia (GBM MVEC [2]; soluble protein 1 μM, over 30 min to 1 h): retraction
phosphoVEGFR2 after 30 min (VEGFR2 [5]; with VEGF-A for 30 min): no phosphoVEGFR2 was detectable
VEGFR2 phosphorylation at Tyr1175 compared to Nogo-A Delta 21 conditions (VEGFR2 [5]; with VEGF-A, peak after 15 min): considerably lower
mean number of endothelial tip cells within the glioblastoma [6]: decreases
VEGF+FN-induced migration (GBM MVECs): dose-dependently inhibited
